Each structure is given as a SMILES string.

Data set [1] deals with total (truncated + full length) C7 in RDEB_L1 cells. The data set is described as follows: AlphaLISA quantification of total C7 in RDEB_L1 cells. As to conditions: 20 ng/mL TGFß2; for EC50: Homo sapiens, total C7 AlphaLISA, 48 h, mean ± SD, read-out: Increase in C7 levels EC50(rel). The class given is cell-based, human. How it is done: (§1) The AlphaLISA assay was developed in-house by using the biotin-conjugated rabbit polyclonal antibody anti-C7 (LSBio LS-298147) and conjugating the acceptor beads (PerkinElmer 6772001) to a monoclonal anti-Collagen type VII antibody produced in mouse, clone LH7.2 (Thermo MA5-13,432). Formulation of the mAb clone LH7.2 was exchanged to PBS and concentrated 5 × by using Amicon® Ultra-0.5 centrifugal filters up to 1 mg/ml. The conjugation procedure was carried out according to the protocol provided by PerkinElmer.
(§2) For compound treatment in RDEB patient-derived transformed keratinocytes, 5,000 cells were plated in 20 µL of supplemented KGM media containing 20 ng/mL TGFβ2 (SIGMA GF113) without GA-1000 in 384-well cell culture plates (Greiner 781098). The day after, 5 µL of test compounds prepared 5 × in supplemented KGM without GA-1000 were added over cells and incubated for 48 h at 37 °C and 5% CO2. For compound treatment in HEK293^R578X, 10,000 cells were plated in 20 μL of DMEM (High Glucose, 2 mM L-Glutamine, sodium pyruvate, and FBS 10%) in 384-well cell culture plates (Greiner 781,098,). The day after, 5 μL of test compounds prepared 5 × in DMEM complete medium were added over cells and incubated for 48 h at 37 °C and 5% CO2.
(§3) After the treatment process, 2.5 µL of RIPA buffer 10 x (Abcam ab156034) were added over the […] of cells for 20 min at room temperature to obtain a complete cell lysis. Then, 2 μL of sample (i.e., cell lysate with supernatant) were transferred to the AlphaLISA plate (PerkinElmer 6,059,340) containing […] of antibodies mixture ([…] of acceptor Beads-Ab and […] of biotin-rAb) prepared in AlphaLISA buffer 1 x (PerkinElmer AL00F). The reaction was incubated for 90 min at room temperature. Finally, 10 μL of […] of donor beads (PerkinElmer 6760002,) were added to the reaction under subdued light, mixed gently, and incubated for 3 h at room temperature. AlphaLISA signal was detected with an Envision microplate reader (Perkin Elmer) using the following setting: Filter: AlphaScreen, Excitation time: 180 ms, Integration time: 300 ms.
(§4) Statistical analyses were performed using GraphPad Prism v. 7.04 (La Jolla, California). Results are shown as mean ± SD of experimental replicates. Dose–response curves to assess compound treatment effect were plotted in a four-parameter logistic model. Relative EC50, representing the total drug concentration producing a 50% effect, was calculated in the four-parameter logistic equation. Comparisons of collagen protein and mRNA expression in different experimental conditions were made using ANOVA, followed by a post hoc test. statistical significance was considered with p values < 0.05.

Data set [2] relates to total C7 in HEK293^R578X cells. The data set is described as follows: AlphaLISA quantification of total C7 in recombinant HEK293^R578X cells. The class given is cell-based, human. The note with it: for Increase in C7 levels Emax, % vs baseline: at 100 µM. On the procedure: as §1, §2, §3, §4
The test system of data set [3] is truncated and full-length C7 in RDEB_L1, RDEB_L5 and HEK293^R578X cells. The data set is described as follows: Western blot detection of truncated and full-length C7. The format is cell-based, human. As to conditions: RDEB_L1 and HEK293^R578X cells; 50 μM compound 7, 50 μM chuangxinmycin, 100 μM 3-methyl-chuangxinmycin. On the procedure: For western blot, RDEB or normal human keratinocytes were lysed in protein extraction buffer (50 mM Tris–HCl [pH 7.5], 100 mM NaCl, 1% Nonidet P-40, and 4 mM EDTA) containing proteinase inhibitors cocktail (Complete Mini, EDTA free; Roche Diagnostics, Mannheim, Germany). Lysates were incubated for 30 min on ice and centrifuged at 15,000 g for 30 min at 4 °C. Supernatants were then collected and concentrated by ultrafiltration using Amicon Ultra columns (10 kDa; Millipore, Ireland). Protein concentrations were measured using the Bradford assay (Bio-Rad, Hercules, CA). For each sample, […] total protein was resolved on NuPAGE Novex 3%–8% Tris–Acetate gel electrophoresis (Invitrogen, Carlsbad, CA) and electrotransferred to nitrocellulose membranes (Invitrogen, Carlsbad, CA). For type VII collagen analysis, blots were probed with a monospecific polyclonal anti-C7 antibody (a generous gift from Dr. A. Nystrom, University of Freiburg). Invitrogen anti-MDH1 polyclonal antibody (PA550446, 1:1000) was used to detect MDH1. Standard antibodies against a reference protein were used as a loading control, as indicated. Visualization of the resulting signal was performed by incubating with horseradish peroxidase (HRP)- conjugated anti-rabbit antibody (Amersham, Burlington, MA) and West Pico Chemiluminescent Substrate (Pierce, Rockford, IL).

Another data set relates to RDEB_L1 cells. Nature of the data set: RNAseq (HTPathwaySeq) transcriptomic profiling, GSEA. The class given is cell-based, human. As to conditions: 24 h, 20 ng/mL TGFβ2, compound 7 and 8 at the highest concentrations tested of 100 and 300 µM. On the procedure: The […]®) analysis was conducted at […], Belgium) using samples provided by Almirall. A total of 376 cell lysate samples representing 4 biological replicates of 94 samples were provided to […] in four 96-well plates. On each 96-well plate, two empty wells were allocated to include […] reference samples. Samples from the same biological group were distributed over the different plates to not confound inter-plate variability with biological signal. […] The compounds were evaluated in RDEB_L1 cells in the presence of 20 ng/mL TGFβ2 to mimic RDEB physiology and in normal human keratinocytes with no TGFβ2 treatment. Cells were treated during 24 h. Controls for RDEB_L1 cells not treated with TGFβ2 and RDEB_L1 and NHK cells treated with DMSO in the absence of compounds were also included. The conditions of the assay were identical to those described for the Real-time quantitative RT-PCR (see above). For the […], over 460 M reads were generated for 376 samples of interest, resulting in about 1.22 M reads per sample on average. […] is based on a 3'-end library preparation method, and gene body read coverage is concentrated towards the 3'-end of the genes. For quality control, a selection of lysate samples was checked for gDNA contamination and RNA content using qPCR before library preparation. RNA samples were processed to generate RNA-sequencing libraries using […] procedure based on the QuantSeq (Lexogen) 3'-end library preparation workflow. The quality of a selection of samples was assessed with the 2100 Bioanalyzer instrument (Agilent). Libraries were quantified using qPCR and pooled for single-end sequencing on a NextSeq 500 (Illumina) according to […] standard operating procedure. Raw reads were mapped to the human genome (hg38) and gene expression was quantified based on the Ensembl transcriptome annotation (version 85) using […]. Raw counts were normalized using […]2 prior to differential gene expression analysis. For each cell line, samples were clustered based on log-transformed normalized counts using tSNE. A perplexity parameter of 35 and a maximum number of 1000 iterations were applied. Genes with more than 10 normalized counts in at least 3 samples were used as input. Analysis was run in R (v3.2) with a fixed seed. […] For each contrast, genes ranked by fold change were used as input. PCA was applied on the fold changes of each compound vs their associated vehicle using the 500 genes with the greatest variance. Arrows connect the different incremental dosages used on each compound to observe their differentiation patterns. Pathway enrichment and PCA were performed using R v.3.2. Pathway enrichment was analyzed with cluster profile package. The procedure followed for the cell treatments of RDEB-L1 and NHEK, was the same as that used in the RT-qPCR study. Cell lysis and sample preparation were conducted according to […] instructions: Plates of treated cells were centrifuged for 5 min at 600 g at 4 °C, and the medium was carefully removed to avoid disturbing the cells. Then, cells were washed in PBS, centrifuged and the PBS was removed again. […] After checking that cells were lysed, the samples were transferred to 96-well PCR plates, and then sealed and stored at -80 °C to be sent to […].

The nature of data set [4]: Cytotoxicity, ATP levels, normal human keratinocytes (NHK). As to conditions: human, normal human keratinocytes (NHK); NHK cells, ATP levels; read-out: Cytotox. IC50. The format is cell-based. How it is done:
(§5) The viability of RDEB patient-derived cell lines or NHK was evaluated by measuring the ATP levels as an indirect readout of the potential cytotoxicity effect of compounds. Cells were plated and treated exactly with the same conditions as those followed in the AlphaLISA assay, described above. To measure ATP levels, cells were processed using the ATPlite™ 1step luminescence-based assay (PerkinElmer 6,016,731), following the manufacturer’s protocol. 25 μL of ATPlite™ reagent was added directly over cells and plates were covered with a sealing film and shaken for 25 min using a microtiter plate shaker. Luminescence was measured in a Luminoskan Ascent luminometer (Thermo Fisher Scientific). 10 μM of Staurosporine was used as a reference compound and control for the total cytotoxicity.

The test system of data set [5] is total (truncated + full length) C7 in RDEB_L5 cells. The data set is described as follows: AlphaLISA quantification of total C7 in RDEB_L5 cells. The class given is cell-based, human. How it is done:
as §1, §2, §3, §4

In the next data set the test system is NHK cells. The data set is described as follows: Cytotoxicity, ATP levels, normal human keratinocytes (NHK). The format is cell-based. As to conditions: NHK cells, ATP levels, at 50 µM. How it is done: as §5
The next data set concerns the target T1, A2A (Homo sapiens, UniProt P29274).
T1 construct: Eurofins Pharma Discovery Services
The data set is described as follows: Selectivity panel (Eurofins): A2A adenosine receptor. The format is binding. The note with it: Table 5, read-out: Selectivity % inhibition, A2A.

Another data set has as its target T2, SAPK2α (Homo sapiens, UniProt Q16539).
T2 construct: Eurofins Pharma Discovery Services
The data set is described as follows: Selectivity panel (Eurofins): p38/SAPK2α kinase. As to conditions: Table 5, read-out: Selectivity % inhibition, SAPK2α. The format is biochemical.

In the next data set the test system is BZD. The data set is described as follows: Selectivity panel (Eurofins): benzodiazepine receptor BZD. The format is binding. The note with it: Table 5.

T1 sequence (P29274 whole entry): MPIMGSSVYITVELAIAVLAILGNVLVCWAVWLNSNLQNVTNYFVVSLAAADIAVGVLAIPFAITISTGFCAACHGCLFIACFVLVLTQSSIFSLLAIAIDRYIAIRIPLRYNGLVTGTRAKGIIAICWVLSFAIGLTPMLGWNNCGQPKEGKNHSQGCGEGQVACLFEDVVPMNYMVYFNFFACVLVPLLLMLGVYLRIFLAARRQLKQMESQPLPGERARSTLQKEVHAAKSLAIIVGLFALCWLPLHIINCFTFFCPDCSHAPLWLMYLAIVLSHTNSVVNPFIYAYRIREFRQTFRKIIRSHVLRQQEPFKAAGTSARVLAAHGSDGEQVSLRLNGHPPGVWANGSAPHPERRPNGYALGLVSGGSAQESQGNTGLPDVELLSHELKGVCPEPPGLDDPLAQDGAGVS
T2 sequence (Q16539 whole entry): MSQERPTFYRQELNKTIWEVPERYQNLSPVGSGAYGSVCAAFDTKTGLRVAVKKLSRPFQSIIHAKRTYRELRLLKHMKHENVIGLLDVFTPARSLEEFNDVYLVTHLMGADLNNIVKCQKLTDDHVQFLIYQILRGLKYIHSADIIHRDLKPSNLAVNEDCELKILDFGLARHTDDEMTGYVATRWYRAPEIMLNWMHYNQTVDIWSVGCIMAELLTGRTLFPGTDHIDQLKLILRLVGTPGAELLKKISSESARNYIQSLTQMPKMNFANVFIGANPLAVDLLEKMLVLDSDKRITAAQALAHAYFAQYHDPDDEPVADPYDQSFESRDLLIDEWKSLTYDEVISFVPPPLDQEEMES

For the molecule `CC1(C)c2c[nH]c3cccc(c23)S[C@H]1C(=O)O` [3-methyl chuangxinmycin, 3-methyl-chuangxinmycin], the EC50 in [1] (RDEB_L1 cells) was 42 µM; in data set [2] (Homo sapiens, total C7 AlphaLISA, 48 h, relative EC50, mean ± SD, read-out: Increase in C7 levels EC50), 4.6 µM. Also, the “Increase in C7 levels Emax, % vs baseline” value (shortened to “Increase … % vs baseline”) in data set [1] (RDEB_L1 cells, at 100 µM) is listed as 105 ± 13 at 100 % vs baseline; in data set [2] it was 58 at 100 % vs baseline. Besides, the “C7 products induced, western blot” value in [3] is listed as “partially upregulated full-length C7”. Also, the “modulation of GO terms related to NMD, readthrough, translation and unfolded protein response” value in the data set on RDEB_L1 cells is “Neither compound 1 nor chuangxinmycin nor 3-methyl-chuangxinmycin showed any impact on these pathways”.
Turning to `C#Cc1nc(-c2ccncc2)c(-c2ccco2)nc1N` [Compound 8], the EC50 in data set [1] (RDEB_L1 cells) was determined as 40 ± 13 µM. In addition, the “Increase … % vs baseline” value in [1] (RDEB_L1 cells, at 100 µM) was determined as 86 ± 13.9 at 100 % vs baseline; in data set [2] it was 10± 13 at 100 % vs baseline. In data set [4], the IC50 came to 31 ± 4.1 µM. Moreover, in the data set on RDEB_L1 cells, the “modulation of GO terms related to NMD, readthrough, translation and unfolded protein response” value is “modulating genes specifically related to cytoplasmic translation and the ribosome”.
With `C[C@H]1c2c[nH]c3cccc(c23)S[C@H]1C(=O)O` [Chuangxinmycin, chuangxinmycin], the “Increase … % vs baseline” value in data set [1] (RDEB_L1 cells, at 50 µM) is 22 ± 3 at 50 % vs baseline. Moreover, in data set [3], the “C7 products induced, western blot” value is “partially upregulated full-length C7”. Moreover, the “modulation of GO terms related to NMD, readthrough, translation and unfolded protein response” value in the data set with RDEB_L1 cells was “Neither compound 1 nor chuangxinmycin nor 3-methyl-chuangxinmycin showed any impact on these pathways”.
Turning to `Nc1ncc(-c2ccc3cnn(CCO)c3c2)nc1C(=O)NC1C2CC3CC1CC(O)(C3)C2` (centres unmarked) [Compound 3], the EC50 in [1] (RDEB_L1 cells) is 1.9 ± 0.12 µM; in [5] (Homo sapiens, total C7 AlphaLISA, 48 h, 20 ng/mL TGFß2, relative EC50, mean ± SD, read-out: Increase in C7 levels EC50), 3.1 ± 0.008 µM. Also, the “Increase … % vs baseline” value in [1] (RDEB_L1 cells, at 3.1 µM) is reported as 2083 ± 29 at 3.1 % vs baseline; in data set [5] (at 1.25 µM, 20 ng/mL TGFß2) it was 717 ± 229 at 1.25 % vs baseline. Also, in the data set on NHK cells, the “Cytotox. % inhibition of viability” value is recorded as 58% ± 13 at 50 (n=2).
As to `Nc1cnc(-c2ccncc2)c(-c2cccc(F)c2)n1` [Compound 10], in data set [1] (Table 5 SAR, at 50 μM), the “Increase … % vs baseline” value is 2.1 ± 16 at 50 % vs baseline. Moreover, the values for the inhibition at 3 µM at A2A (at 3 μM) and on SAPK2α (at 3 μM) were 104% and 36%, respectively. Moreover, the values for the inhibition at 10 µM on A2A (at 10 μM) and on SAPK2α (at 10 μM) were 103% and 162%, respectively. In addition, the results for the inhibition at 30 µM on A2A (at 30 μM) and on SAPK2α (at 30 μM) were 104% and 88%, respectively. The “Selectivity % inhibition, BZD” value in the data set with BZD (at 3 μM) came out at 0%; in the data set with BZD (at 10 μM), 0%; with BZD (at 30 μM), 9%.

Values taken from publication PMC11329504, “Identification of novel small molecule-based strategies of COL7A1 upregulation and readthrough activity for the treatment of recessive dystrophic epidermolysis bullosa” (Scientific Reports, 2024).
